# Source: patent EP1976513B1 (priority 2006, dated 2007)
# Read-outs that look alike come from different tables or passages of the source.
# Tests used:
# mice [1] = assay: Mouse locomotor activity; type: in vivo; details: PO
# Method: (§1) In order to ensure effects of the compounds on immobility time were not related to a general stimulant effect on baseline motor activity, locomotor activity was assessed using photocell monitored cages (Med-Associates Inc.). Each test chamber was equipped with infrared photocell beams to measure movement of the animals. Horizontal and vertical activity were measured
# (§2) Rats or mice were pretreated with vehicle or test compounds and placed back in home cage, following which they will be individually placed in locomotor cages and activity was monitored in 5 minute intervals for up to 60 min.
# (§3) Data were analyzed by one way analysis of variance (ANOVA) followed by post-hoc comparisons where appropriate. An effect was considered significant if p < 0.05. Data are represented as the mean and standard error to the mean (s.e.m).
# mice [2] = assay: Mouse tail suspension test; type: in vivo; details: PO, 30-60 minutes before the test, 5 minutes recording
# Rats [3] = assay: Rat forced swim test; type: in vivo; details: PO, 24 hours and 30-60 minutes before the 5 minute test
# Rats [4] = assay: Rat locomotor activity; type: in vivo; details: PO
# Method: as §1, §2, §3
# [5] = molecular target: Norepinephrine Transporter (NET) Sites in Mouse Brain (Mus musculus, UniProt O55192); details: PO; for % Transporter Occupancy, NET: 60 minutes after treatment, vs vehicle; for Mean Specific Binding (dpm) ± S.E.M., NET: mice sacrificed 60 minutes after treatment, cortex
# Chain of Norepinephrine Transporter (NET) Sites in Mouse Brain (O55192 whole entry): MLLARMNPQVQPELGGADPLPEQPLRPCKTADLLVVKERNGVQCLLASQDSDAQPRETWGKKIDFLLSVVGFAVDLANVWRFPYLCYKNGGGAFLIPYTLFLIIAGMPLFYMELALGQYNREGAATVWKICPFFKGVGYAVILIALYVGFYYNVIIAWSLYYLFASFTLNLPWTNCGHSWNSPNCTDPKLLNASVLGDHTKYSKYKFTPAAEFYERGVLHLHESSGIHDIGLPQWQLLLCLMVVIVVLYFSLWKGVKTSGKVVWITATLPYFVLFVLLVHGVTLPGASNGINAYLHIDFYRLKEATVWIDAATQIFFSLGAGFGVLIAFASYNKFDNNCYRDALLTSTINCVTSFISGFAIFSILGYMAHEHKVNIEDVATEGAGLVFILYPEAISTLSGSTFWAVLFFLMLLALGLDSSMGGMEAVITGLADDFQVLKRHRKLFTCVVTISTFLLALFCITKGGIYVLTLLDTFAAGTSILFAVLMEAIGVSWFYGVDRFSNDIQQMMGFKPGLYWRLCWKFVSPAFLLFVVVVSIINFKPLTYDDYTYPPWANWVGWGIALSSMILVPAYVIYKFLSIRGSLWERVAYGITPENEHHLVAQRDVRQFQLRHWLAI
# [6] = molecular target: T1, DA Transporter (DAT) Sites in Mouse Brain (Mus musculus, UniProt Q61327); assay: Ex vivo [3H] WIN 35428 binding after oral dosing; design: species or system C57BL/6 mice; details: for % Transporter Occupancy, DAT: 60 minutes after treatment, vs vehicle; for Mean Specific Binding (dpm) ± S.E.M., DAT: mice sacrificed 60 minutes after treatment, striatum
# T1 construct: Striatum was used to determine occupancy of DA transporter sites; from tissue; host or cells: C57BL/6 mouse striatum homogenate
# T1 sequence (Q61327 whole entry): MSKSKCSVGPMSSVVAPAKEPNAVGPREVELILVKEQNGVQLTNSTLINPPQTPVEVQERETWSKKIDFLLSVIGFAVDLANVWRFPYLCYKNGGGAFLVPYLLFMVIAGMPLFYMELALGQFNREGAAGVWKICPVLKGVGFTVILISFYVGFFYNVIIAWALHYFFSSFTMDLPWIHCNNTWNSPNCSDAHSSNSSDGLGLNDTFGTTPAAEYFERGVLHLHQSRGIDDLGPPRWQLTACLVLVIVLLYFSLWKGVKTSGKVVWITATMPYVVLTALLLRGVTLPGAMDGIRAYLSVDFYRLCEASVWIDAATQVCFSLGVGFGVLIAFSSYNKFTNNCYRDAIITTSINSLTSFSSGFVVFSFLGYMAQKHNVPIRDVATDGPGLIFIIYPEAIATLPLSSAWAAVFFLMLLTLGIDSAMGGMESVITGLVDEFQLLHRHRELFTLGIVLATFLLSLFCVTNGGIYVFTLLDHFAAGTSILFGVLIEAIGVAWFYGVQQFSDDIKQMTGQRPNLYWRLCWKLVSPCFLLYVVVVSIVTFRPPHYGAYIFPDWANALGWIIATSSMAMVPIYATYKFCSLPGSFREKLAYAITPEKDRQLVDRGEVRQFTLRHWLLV
# [7] = molecular target: T2, 5-HT Transporter (SERT) Sites in Mouse Brain (Mus musculus, UniProt Q60857); assay: Ex vivo [3H] citalopram binding after oral dosing; design: species or system C57BL/6 mice; details: for % Transporter Occupancy, SERT: 60 minutes after treatment, vs vehicle; for Mean Specific Binding (dpm) ± S.E.M., SERT: mice sacrificed 60 minutes after treatment, cortex
# T2 construct: Whole brains were removed and cortex and striata dissected out; from tissue; host or cells: C57BL/6 mouse frontal cortex homogenate
# T2 sequence (Q60857 whole entry): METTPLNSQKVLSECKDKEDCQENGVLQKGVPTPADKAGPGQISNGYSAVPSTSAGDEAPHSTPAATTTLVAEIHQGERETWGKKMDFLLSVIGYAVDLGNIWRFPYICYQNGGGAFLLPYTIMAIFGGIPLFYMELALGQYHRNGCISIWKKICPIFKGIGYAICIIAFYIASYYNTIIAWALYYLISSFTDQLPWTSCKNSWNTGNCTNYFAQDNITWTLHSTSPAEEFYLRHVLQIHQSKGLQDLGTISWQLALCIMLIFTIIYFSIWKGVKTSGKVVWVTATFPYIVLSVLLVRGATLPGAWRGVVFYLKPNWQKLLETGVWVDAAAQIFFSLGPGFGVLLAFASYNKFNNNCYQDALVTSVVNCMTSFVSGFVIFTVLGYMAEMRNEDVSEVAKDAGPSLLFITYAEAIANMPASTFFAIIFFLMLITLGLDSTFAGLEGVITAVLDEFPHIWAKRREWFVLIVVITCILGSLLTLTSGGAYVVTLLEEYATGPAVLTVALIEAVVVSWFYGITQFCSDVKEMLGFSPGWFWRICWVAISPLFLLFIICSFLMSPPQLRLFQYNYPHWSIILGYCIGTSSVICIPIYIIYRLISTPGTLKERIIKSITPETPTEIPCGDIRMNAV
# [8] = molecular target: human serotonin reuptake transporter (Homo sapiens, UniProt P31645); assay: cell-based
# Chain of human serotonin reuptake transporter (P31645 whole entry): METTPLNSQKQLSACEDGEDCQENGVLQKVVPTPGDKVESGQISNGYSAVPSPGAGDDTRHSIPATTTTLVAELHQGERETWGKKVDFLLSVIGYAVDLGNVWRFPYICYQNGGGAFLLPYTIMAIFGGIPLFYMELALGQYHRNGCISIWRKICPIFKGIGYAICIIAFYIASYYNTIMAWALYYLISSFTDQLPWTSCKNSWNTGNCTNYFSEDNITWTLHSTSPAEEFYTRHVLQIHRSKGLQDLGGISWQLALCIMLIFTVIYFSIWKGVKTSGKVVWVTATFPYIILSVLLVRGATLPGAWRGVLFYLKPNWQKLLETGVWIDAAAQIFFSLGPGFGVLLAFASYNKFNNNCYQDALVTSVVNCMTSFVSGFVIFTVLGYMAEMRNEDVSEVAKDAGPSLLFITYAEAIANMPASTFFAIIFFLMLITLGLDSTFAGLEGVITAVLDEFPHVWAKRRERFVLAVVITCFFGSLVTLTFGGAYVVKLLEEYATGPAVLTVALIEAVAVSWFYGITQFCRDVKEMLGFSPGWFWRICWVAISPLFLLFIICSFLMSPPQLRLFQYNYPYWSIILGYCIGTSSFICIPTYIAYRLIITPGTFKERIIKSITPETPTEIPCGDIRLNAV
# [9] = molecular target: T3, human dopamine reuptake transporter (Homo sapiens, UniProt Q01959); assay: cell-based; details: recombinant human dopamine transporter (DAT); read-out: Human IC50 (nM) hDAT
# T3 construct: expressed in transfected cells; host or cells: CHO-K1 or HEK293
# T3 sequence (Q01959 whole entry): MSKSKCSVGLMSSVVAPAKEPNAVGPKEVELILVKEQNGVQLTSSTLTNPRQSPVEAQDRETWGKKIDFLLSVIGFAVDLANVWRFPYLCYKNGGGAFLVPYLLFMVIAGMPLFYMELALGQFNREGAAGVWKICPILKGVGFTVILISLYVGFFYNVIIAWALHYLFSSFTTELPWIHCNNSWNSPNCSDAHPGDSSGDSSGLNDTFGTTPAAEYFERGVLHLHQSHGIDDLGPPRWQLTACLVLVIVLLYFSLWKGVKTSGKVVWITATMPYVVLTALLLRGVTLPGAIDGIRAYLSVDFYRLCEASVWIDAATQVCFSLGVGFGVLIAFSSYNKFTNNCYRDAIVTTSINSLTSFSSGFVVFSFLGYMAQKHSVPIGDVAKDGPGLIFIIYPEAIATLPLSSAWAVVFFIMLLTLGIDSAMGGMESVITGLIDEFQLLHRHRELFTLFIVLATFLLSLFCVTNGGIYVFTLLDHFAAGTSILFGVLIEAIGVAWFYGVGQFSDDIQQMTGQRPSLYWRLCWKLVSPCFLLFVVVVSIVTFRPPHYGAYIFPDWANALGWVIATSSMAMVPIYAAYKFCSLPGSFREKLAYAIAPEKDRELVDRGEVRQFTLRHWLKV
# [10] = recombinant human serotonin transporter (SERT), read-out: Human IC50 (nM) hSERT
# [11] = Human IC50 (nM) hSERT, recombinant human serotonin transporter (SERT)
smiles,measurement,setting,value
"CCC(N)C1(c2ccc(Cl)c(Cl)c2)CCCCC1 (single isomer, unassigned) [17 E1, 1-(1-(3,4-dichlorophenyl)cyclohexyl)propan-1-amine]",Mouse Locomotor Activity Total Distance Traveled ± S.E.M.,mice [1]; 3 mg/kg,649.3 ± 78.4
same,Mouse Locomotor Activity Total Distance Traveled ± S.E.M.,mice [1]; 10 mg/kg,478.3 ± 88.5
same,Mouse Locomotor Activity Total Distance Traveled ± S.E.M.,mice [1]; 30 mg/kg,428.3 ± 120.6
same,Mouse Tail Suspension Mean Immobility Time ± S.E.M.,mice [2]; 3 mg/kg,184.7 ± 9.0
same,Mouse Tail Suspension Mean Immobility Time ± S.E.M.,mice [2]; 10 mg/kg,182.6 ± 4.1
same,Mouse Tail Suspension Mean Immobility Time ± S.E.M.,mice [2]; 30 mg/kg,150.9 ± 7.8
"CNC(C)C1(c2ccc(Cl)c(Cl)c2)CCCCC1 (single isomer, unassigned) [44 E1, 1-(1-(3,4-dichlorophenyl)cyclohexyl)-N-methylethanamine]",Mouse Locomotor Activity Total Distance Traveled ± S.E.M.,mice [1]; 3 mg/kg,576.5 ± 66.9
same,Mouse Locomotor Activity Total Distance Traveled ± S.E.M.,mice [1]; 10 mg/kg,721.1 ± 36.5
same,Mouse Locomotor Activity Total Distance Traveled ± S.E.M.,mice [1]; 30 mg/kg,402.3 ± 71.0
same,Mouse Tail Suspension Mean Immobility Time ± S.E.M.,mice [2]; 3 mg/kg,188.9 ± 7.3
same,Mouse Tail Suspension Mean Immobility Time ± S.E.M.,mice [2]; 10 mg/kg,174.5 ± 8.1
same,Mouse Tail Suspension Mean Immobility Time ± S.E.M.,mice [2]; 30 mg/kg,120.4 ± 9.0
"CN(C)CC1(c2ccc(Cl)c(Cl)c2)CCCCC1O (single isomer, unassigned) [153 E2, trans-2-(3,4-dichlorophenyl)-2-((dimethylamino)methyl)cyclohexanol]",Rat Forced Swim (Means ± S.E.M.) Climbing,Rats [3]; 3 mg/kg,8.8 ± 1.5
same,Rat Forced Swim (Means ± S.E.M.) Immobility,Rats [3]; 3 mg/kg,49.9 ± 1.7
same,Rat Forced Swim (Means ± S.E.M.) Swimming,Rats [3]; 3 mg/kg,1.9 ± 0.8
same,Rat Forced Swim (Means ± S.E.M.) Climbing,Rats [3]; 10 mg/kg,11.7 ± 1.8
same,Rat Forced Swim (Means ± S.E.M.) Immobility,Rats [3]; 10 mg/kg,44.0 ± 2.1
same,Rat Forced Swim (Means ± S.E.M.) Swimming,Rats [3]; 10 mg/kg,4.3 ± 1.1
same,Rat Forced Swim (Means ± S.E.M.) Climbing,Rats [3]; 30 mg/kg,22.2 ± 5.2
same,Rat Forced Swim (Means ± S.E.M.) Immobility,Rats [3]; 30 mg/kg,31.3 ± 6.7
same,Rat Forced Swim (Means ± S.E.M.) Swimming,Rats [3]; 30 mg/kg,4.6 ± 1.3
same,Mouse Locomotor Activity Total Distance Traveled ± S.E.M.,mice [1]; 3 mg/kg,625.5 ± 88.8
same,Mouse Locomotor Activity Total Distance Traveled ± S.E.M.,mice [1]; 10 mg/kg,519.5 ± 88.4
same,Mouse Locomotor Activity Total Distance Traveled ± S.E.M.,mice [1]; 30 mg/kg,573.7 ± 63.6
same,Rat Locomotor Activity Total Distance Traveled ± S.E.M.,Rats [4]; 3 mg/kg,1577.8 ± 80.1
same,Rat Locomotor Activity Total Distance Traveled ± S.E.M.,Rats [4]; 10 mg/kg,1994.2 ± 263.9
same,Rat Locomotor Activity Total Distance Traveled ± S.E.M.,Rats [4]; 30 mg/kg,2033.7 ± 215.4
"CN(C)CC1(c2ccc3ccccc3c2)CCCCC1O (single isomer, unassigned) [164 E1, trans-2-((dimethylamino)methyl)-2-(naphthalen-2-yl)cyclohexanol]",Mouse Locomotor Activity Total Distance Traveled ± S.E.M.,mice [1]; 3 mg/kg,377.8 ± 67.6
same,Mouse Locomotor Activity Total Distance Traveled ± S.E.M.,mice [1]; 10 mg/kg,210.3 ± 40.4
same,Mouse Locomotor Activity Total Distance Traveled ± S.E.M.,mice [1]; 30 mg/kg,494.0 ± 84.9
same,Mouse Tail Suspension Mean Immobility Time ± S.E.M.,mice [2]; 3 mg/kg,183.8 ± 6.5
same,Mouse Tail Suspension Mean Immobility Time ± S.E.M.,mice [2]; 10 mg/kg,162.1 ± 4.6
same,Mouse Tail Suspension Mean Immobility Time ± S.E.M.,mice [2]; 30 mg/kg,155.3 ± 7.8
"CN(C)CC1(c2ccc3ccccc3c2)CCCCC1O (single isomer, unassigned) [164 E2, trans-2-((dimethylamino)methyl)-2-(naphthalen-2-yl)cyclohexanol]",Mouse Locomotor Activity Total Distance Traveled ± S.E.M.,mice [1]; 3 mg/kg,518.2 ± 106.1
same,Mouse Locomotor Activity Total Distance Traveled ± S.E.M.,mice [1]; 10 mg/kg,464.5 ± 86.2
same,Mouse Locomotor Activity Total Distance Traveled ± S.E.M.,mice [1]; 30 mg/kg,669.9 ± 75.6
same,Mouse Tail Suspension Mean Immobility Time ± S.E.M.,mice [2]; 3 mg/kg,181.8 ± 6.3
same,Mouse Tail Suspension Mean Immobility Time ± S.E.M.,mice [2]; 10 mg/kg,179.1 ± 4.5
same,Mouse Tail Suspension Mean Immobility Time ± S.E.M.,mice [2]; 30 mg/kg,141.8 ± 6.0
"CNCC1(c2ccc(Cl)c(Cl)c2)CCC(C)(O)CC1 (centres unmarked) [Compound 276, 4-(3,4-dichlorophenyl)-1-methyl-4-((methylamino)methyl)cyclohexanol]","% Transporter Occupancy, NET",[5]; 1 mg/kg,-4%
same,"Mean Specific Binding (dpm) ± S.E.M., NET",[5]; 1 mg/kg,1602 ± 51 dpm
same,"% Transporter Occupancy, NET",[5]; 3 mg/kg,-6%
same,"Mean Specific Binding (dpm) ± S.E.M., NET",[5]; 3 mg/kg,1631 ± 92 dpm
same,"% Transporter Occupancy, NET",[5]; 10 mg/kg,-1%
same,"Mean Specific Binding (dpm) ± S.E.M., NET",[5]; 10 mg/kg,1553 ± 27 dpm
same,"% Transporter Occupancy, NET",[5]; 30 mg/kg,26%
same,"Mean Specific Binding (dpm) ± S.E.M., NET",[5]; 30 mg/kg,1138 ± 59 dpm
same,"% Transporter Occupancy, DAT",[6]; 1 mg/kg,-21%
same,"% Transporter Occupancy, DAT",[6]; 3 mg/kg,-9%
same,"Mean Specific Binding (dpm) ± S.E.M., DAT",[6]; 3 mg/kg,16312 ± 2396 dpm
same,"% Transporter Occupancy, DAT",[6]; 10 mg/kg,-6%
same,"Mean Specific Binding (dpm) ± S.E.M., DAT",[6]; 10 mg/kg,15879 ± 2265 dpm
same,"% Transporter Occupancy, DAT",[6]; 30 mg/kg,31%
same,"Mean Specific Binding (dpm) ± S.E.M., DAT",[6]; 30 mg/kg,10397 ± 931 dpm
same,"% Transporter Occupancy, SERT",[7]; 1 mg/kg,12%
same,"Mean Specific Binding (dpm) ± S.E.M., SERT",[7]; 1 mg/kg,3743 ± 199 dpm
same,"% Transporter Occupancy, SERT",[7]; 3 mg/kg,14%
same,"Mean Specific Binding (dpm) ± S.E.M., SERT",[7]; 3 mg/kg,3685 ± 292 dpm
same,"% Transporter Occupancy, SERT",[7]; 10 mg/kg,28%
same,"Mean Specific Binding (dpm) ± S.E.M., SERT",[7]; 10 mg/kg,3092 ± 207 dpm
same,"% Transporter Occupancy, SERT",[7]; 30 mg/kg,64%
same,"Mean Specific Binding (dpm) ± S.E.M., SERT",[7]; 30 mg/kg,1558 ± 169 dpm
same,Mouse Locomotor Activity Total Distance Traveled ± S.E.M.,mice [1]; 3 mg/kg,625.9 ± 47.5
same,Mouse Locomotor Activity Total Distance Traveled ± S.E.M.,mice [1]; 10 mg/kg,382.4 ± 63.4
same,Mouse Locomotor Activity Total Distance Traveled ± S.E.M.,mice [1]; 30 mg/kg,607.8 ± 57.8
same,IC50,[8]; [10],210 nM
"CCCC1(O)CCC(CNC)(c2ccc(Cl)c(Cl)c2)CC1 (centres unmarked) [Compound 285, 4-(3,4-dichlorophenyl)-4-((methylamino)methyl)-1-propylcyclohexanol]",IC50,[9],1900 nM
same,IC50,[8]; [10],1140 nM
"CCCC1(O)CCC(CN(C)C)(c2ccc(Cl)c(Cl)c2)CC1 (centres unmarked) [Compound 286, 4-(3,4-dichlorophenyl)-4-((dimethylamino)methyl)-1-propylcyclohexanol]",IC50,[9],198 nM
same,IC50,[8]; read-out: Human IC50 (nM) hSERT,46 nM
"CNCC1(c2ccc(Cl)c(Cl)c2)CCC(=O)CC1 [Compound 289, 4-(3,4-Dichloro-phenyl)-4-methylaminomethyl-cyclohexanone]",IC50,[9],282 nM
same,IC50,[8]; [10],469 nM
"Clc1ccc(C2(C3CCCN3)CCCCC2)cc1Cl (centres unmarked) [Compound 296, 2-(1-(3,4-dichlorophenyl)cyclohexyl)pyrrolidine]",IC50,[9],27 nM
same,IC50,[8]; [10],73 nM
"c1ccc2cc(C3(C4CCCN4)CCCCC3)ccc2c1 (centres unmarked) [Compound 297, 2-(1-(naphthalen-2-yl)cyclohexyl)pyrrolidine]",IC50,[9],13 nM
same,IC50,[8]; [10],40 nM
"NCC1(c2ccc(Cl)c(Cl)c2)CCC(O)C1 (stereo not drawn) [cis 167, 3-(aminomethyl)-3-(3,4-dichlorophenyl)cyclopentanol]",IC50,[9],2220 nM
same,IC50,[8]; [11],> 10000 nM
"NCC1(c2ccc(Cl)c(Cl)c2)CCC(O)C1 (stereo not drawn) [trans 167, 3-(aminomethyl)-3-(3,4-dichlorophenyl)cyclopentanol]",IC50,[9],145 nM
same,IC50,[8]; [11],4910 nM
